2 compounds from patent US6608032B1, “Medicinal compositions” (Takara Shuzo Co., Ltd., priority 1999, dated 2003) can be followed below.

For assay [1], the system named is cyclooxygenase 2 mRNA. Put plainly: LPS-induced cyclooxygenase 2 mRNA synthesis in RAW264.7 cells (RT-PCR). The assay is classed as cell-based. The following applies: 50 μl of 10 mM solution per 5 ml, added 0 or 6 hours before LPS. The protocol:
(2) RAW264.7 cells (ATCC TIB 71) were suspended in Dulbecco's modified Eagle's medium (Bio Whittaker, 12-604F) containing 10% fetal calf serum (Gibco) at a concentration of 3×10^5 cells/ml. 5 ml of the suspension was added to each well of a 6-well microtiter plate and the plate was incubated at 37° C. overnight in the presence of 5% CO2. 50 μl of a solution containing agarobiose or agarohexaose at a concentration of 10 mM in water was added to the well. The plate was incubated for 0 or 6 hours. 50 μl of a solution containing lipopolysaccharide (LPS, Sigma, L-2012) at a concentration of 100 μg/ml in water was added to the well. The plate was incubated for additional 5 hours. The culture supernatant was removed, and 1 ml of a solution of Catrimox-14 (a product of Iowa Biotechnology sold by Takara Shuzo, WA002) was added to the well. After pipetting, the solution was collected. An RNA was prepared according to the attached protocol. The RNA prepared as described above was subjected to RT-PCR using RNA-PCR Kit (AMV) Ver. 2.1 (Takara Shuzo, R019A). A reverse transcription reaction was conducted using a random primer (N6) (Takara Shuzo, 3801) at 30° C. for 10 minutes, at 42° C. for 30 minutes and 99° C. for 5 minutes. […]

In assay [2] the test system is heme oxygenase 1 protein. Description: Heme oxygenase 1 induction in RAW264.7 cells (Western blot). The note with it: 15 hours. Further details: key: − represents no band observed; increase in the intensity of the band is represented as follows:+−<+<++; increase in the intensity of the band is represented as follows:+−<+<++; increase in the intensity of the band is represented as follows:+−<+<++. The assay is classed as cell-based. The protocol:
RAW264.7 cells (ATCC TIB 71) were suspended in Dulbecco's modified Eagle's medium (Bio Whittaker, 12-604F) containing 10% fetal calf serum (Gibco) at a concentration of 3×10^5 cells/ml. 5 ml of the suspension was added to each well of a 6-well microtiter plate and the plate was incubated at 37° C. overnight in the presence of 5% CO2. 50 μl of a solution containing agarobiose or agarohexaose in Referential Example 1 at a concentration of 20 mM, 10 mM or 5 mM in water was added to the well. The plate was incubated for 15 hours. A positive control for heme oxygenase 1 induction in which 5 μl of 3 mM solution of 15-deoxy-Δ12,14 prostaglandin J2 (Cayman Chemical, 18570) in dimethyl sulfoxide was added, and a negative control in which water was added were provided. The cells were recovered by detaching the cells from the plate using a scraper and suspended in 0.1 M tris-HCl buffer (pH 7.5) containing 0.05 mM pepstatin A (Sigma, P5318), 0.2 mM leupeptin (Sigma, L2884), 1 mM phenylmethylsulfonyl fluoride (Nacalai Tesque, 273-27), 10 mm ethylenediaminetetraacetic acid disodium salt and 0.1% Triton X-100. A supernatant obtained by centrifuging the suspension after freezing and thawing was used as a protein fraction. The content of protein in the protein fraction was determined using Micro BCA Protein Assay Reagent (a product of Pierce sold by Takara Shuzo, P7411). A sample from the protein fraction prepared as described above was mixed with an equal volume of 0.125 M tris-hydrochloride buffer (pH 6.8) containing 4% sodium lauryl sulfate (SDS), 2% 2-mercaptoethanol, 0.001% Bromophenol Blue and 20% glycerol. After treatment at 100° C. for 5 minutes, a portion corresponding to 10 μg of protein was loaded on 12.5% SDS-polyacrylamide gel and electrophoresed at a constant current of 20 mA. After electrophoresis, the gel was transferred to a PVDF membrane (Millipore, IPVH000 10) at a constant voltage of 15 V for 25 minutes using a blotting buffer (containing 48 mM tris, 39 mM glycine, 20% methanol and 0.0375% SDS) and Trans-Blot SD Cell Semi-Dry blotting apparatus (Bio-Rad) according to the attached protocol. After transferring, the PVDF membrane was blocked in a solution of Block Ace (Dainippon Pharmaceutical, UK-B25) at 4° C. overnight. After blocking, the membrane washed three times in phosphate buffered saline containing 0.1% Tween 20 for 15 minutes with gentle shaking. The membrane was reacted in phosphate buffered saline containing 10% Block Ace, 0.1% Tween 20 and 200 ng/ml of anti-heme oxygenase 1 antibody (N-19; Santa Cruz, sc-7696) at room temperature for 1 hour with gentle shaking, and then washed three times in phosphate buffered saline containing 0.1% Tween 20 for 15 minutes with gentle shaking. The membrane was reacted in phosphate buffered saline containing 10% Block Ace, 0.1% Tween 20 and 0.1% peroxidase-labeled rabbit anti-goat IgG (H+L) antibody (Zymed, 61-1620) at room temperature for 1 hour with gentle shaking, and then washed five times in phosphate buffered saline containing 0.1% Tween 20 for 15 minutes with gentle shaking. The PVDF membrane was stained using Western Blot Chemiluminescence Reagent Plus (a product of NEN Life Science Products sold by Daiichi Pure Chemicals, NEL103) according to the attached protocol and exposed to an X-ray film (Kodak, CAT165 1454). After exposure, the film was developed using FPM800 (Fuji Film).
The intensity of the band depended on the concentration of agarobiose or agarohexaose. In the table, the intensity of the band for heme oxygenase 1 protein is expressed by the mark+. Specifically, − represents no band observed, and increase in the intensity of the band is represented as follows:+−<+<++.
On the technique in general: Immunoblotting shows a protein as a band on a membrane.

On to `OC[C@H]1O[C@@H](O[C@H]2[C@H]3OC[C@@H]2OC(O)[C@H]3O)[C@H](O)[C@@H](O)[C@H]1O` (mixture of isomers) [Agarobiose, agarobiose], for which the “increase in the cyclooxygenase 2 mRNA synthesis induced by LPS” value in assay [1] is listed as “not suppressed”. Also, the “Intensity of band for heme oxygenase 1 protein” value in assay [2] (final concentration of 50 μM) is recorded as “+−”; in assay [2] (final concentration of 100 μM), “+”; in assay [2] (final concentration of 200 μM), “++”.
The matching figures for `OCC1OC(OC2C3COC2C(O)C(OC2C(O)C(CO)OC(OC4C5COC4C(O)C(OC4C(O)C(CO)OC(OC6C7COC6C(O)C(O)O7)C4O)O5)C2O)O3)C(O)C(O)C1O` (centres unmarked) [Agarohexaose, agarohexaose]: “not suppressed”, “+−”, “+” and “++”.
